Laboratory results published in patent US11926628B2 (Gilead Sciences, Inc., priority 2021, dated 2024).

Columns and labels:
[1] = system: Jurkat NFκB-luciferase cells; experiment: Jurkat NFκB-Luciferase Assay; assay type: cell-based; conditions: Homo sapiens; Jurkat NFκB-luciferase cells activated with anti-CD3 antibody (OKT3), 2.5 hrs at 37° C.; geometric mean; read-out: DGK NFKb Luciferase EC50
Procedure, shortened: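 Jurkat NFκB-luciferase reporter cells stimulated on plate-bound anti-CD3 (5 ug/ml coating) with compound, 2.5 hrs at 37° C then 30 min at 25° C; luminescence read with One-Glo Ex. Normalized to DMSO (basal) and 1 micromolar compound (maximum) controls; EC50 from four-parameter fit, geometric mean across experiments.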

[2] = biological target: human DGKα (Homo sapiens (Human), UniProt P23743); experiment: DGKα Biochemical Activity Assay (ADP-Glo); conditions: recombinant DGKα 1 nM, 100 μM ATP, 18:1 DAG/POPS/octylglucoside micelles, 1 hour at 25° C.; geometric mean; read-out: HTBS DGKa 1X ATP KM IC50
Procedure, shortened: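 Recombinant DGKα (1 nM final) was preincubated with compound for 15 min, then reacted for 1 h at 25 °C with 100 μM ATP and octylglucoside micelles of 0.85 mM 18:1 DAG and 6.75 mM POPS in pH 7.2 MOPS with 5 mM MgCl2. ADP formed was read by ADP-Glo luminescence. IC50 came from four-parameter fits normalized to DMSO and 50 μM CU3, and values were geometric means.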

Sequence of human DGKα (P23743 whole entry): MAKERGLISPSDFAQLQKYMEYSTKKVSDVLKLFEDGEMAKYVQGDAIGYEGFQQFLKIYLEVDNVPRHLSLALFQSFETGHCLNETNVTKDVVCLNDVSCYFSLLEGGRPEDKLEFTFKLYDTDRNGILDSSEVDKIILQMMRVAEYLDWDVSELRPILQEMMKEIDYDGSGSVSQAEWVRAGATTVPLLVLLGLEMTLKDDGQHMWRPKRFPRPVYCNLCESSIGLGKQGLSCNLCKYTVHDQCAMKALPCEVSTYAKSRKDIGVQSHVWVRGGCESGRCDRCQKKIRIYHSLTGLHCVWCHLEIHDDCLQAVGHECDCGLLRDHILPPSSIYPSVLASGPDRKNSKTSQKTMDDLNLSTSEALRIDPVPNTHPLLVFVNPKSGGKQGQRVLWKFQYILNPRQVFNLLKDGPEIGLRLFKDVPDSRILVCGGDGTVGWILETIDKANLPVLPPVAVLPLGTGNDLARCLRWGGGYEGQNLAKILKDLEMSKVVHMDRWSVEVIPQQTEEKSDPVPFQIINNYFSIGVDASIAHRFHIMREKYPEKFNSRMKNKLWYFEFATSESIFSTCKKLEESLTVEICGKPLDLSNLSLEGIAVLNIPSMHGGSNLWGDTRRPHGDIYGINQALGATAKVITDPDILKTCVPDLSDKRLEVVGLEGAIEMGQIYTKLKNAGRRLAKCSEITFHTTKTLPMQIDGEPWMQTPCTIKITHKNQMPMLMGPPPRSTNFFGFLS

SMILES | EC50 [1] [nM] | IC50 [2] [nM]
CNc1ccc2c(N(C)c3cccc(-c4ccc(S(F)(F)(F)(F)F)cc4)c3)nc3nncn3c2n1 [Example 116, N2,N5-dimethyl-N5-(4′-(pentafluoro-16-sulfaneyl)-[1,1′-biphenyl]-3-yl)pyrido[3,2-e][1,2,4]triazolo[4,3-a]pyrimidine-2,5-diamine] | 5.67 | 439
CN(c1cccc(-c2ccc(S(F)(F)(F)(F)F)cc2)c1)c1nc2nncn2c2nc(N)ccc12 [Example 117, N5-methyl-N5-(4′-(pentafluoro-16-sulfaneyl)-[1,1′-biphenyl]-3-yl)pyrido[3,2-e][1,2,4]triazolo[4,3-a]pyrimidine-2,5-diamine] | 4.88 | 30.4
CNc1ccc2c(N(C)c3cccc(C#CC(C)(C)C)c3)nc3nncn3c2n1 [Example 118, N5-(3-(3,3-dimethylbut-1-yn-1-yl)phenyl)-N2,N5-dimethylpyrido[3,2-e][1,2,4]triazolo[4,3-a]pyrimidine-2,5-diamine] | 5.79 | 105
CNc1ccc2c(N(C)c3cccc(-c4ccc(OC)nc4)c3)nc3nncn3c2n1 [Example 119, N5-(3-(6-methoxypyridin-3-yl)phenyl)-N2,N5-dimethylpyrido[3,2-e][1,2,4]triazolo[4,3-a]pyrimidine-2,5-diamine] | 52.2 | 392
CNc1ccc2c(N(C)c3cccc(-c4ccc(C5CC5)cc4)c3)nc3nncn3c2n1 [Example 120, N5-(4′-cyclopropyl-[1,1′-biphenyl]-3-yl)-N2,N5-dimethylpyrido[3,2-e][1,2,4]triazolo[4,3-a]pyrimidine-2,5-diamine] | 0.664 | 19.3
CN(c1cccc(C#CC2(C(F)(F)F)CC2)c1)c1nc2nncn2c2nc(N)ccc12 [Example 121, N5-methyl-N5-(3-((1-(trifluoromethyl)cyclopropyl)ethynyl)phenyl)pyrido[3,2-e][1,2,4]triazolo[4,3-a]pyrimidine-2,5-diamine] | 6.93 | 46.2
Cc1ccc2c(N(C)c3cccc(C#CC(C)(C)C)c3)nc3nncn3c2n1 [Example 122, N-(3-(3,3-dimethylbut-1-yn-1-yl)phenyl)-N,2-dimethylpyrido[3,2-e][1,2,4]triazolo[4,3-a]pyrimidin-5-amine] | 4.15 | 42.7
Cc1ccc2c(N(C)c3cccc(-c4ccc(C5CC5)cc4)c3)nc3nncn3c2n1 [Example 123, N-(4′-cyclopropyl-[1,1′-biphenyl]-3-yl)-N,2-dimethylpyrido[3,2-e][1,2,4]triazolo[4,3-a]pyrimidin-5-amine] | 2.05 | 12.7
Cc1ccc2c(N(C)c3cccc(-c4ccc(C(F)F)cc4)c3)nc3nncn3c2n1 [Example 124, N-(4′-(difluoromethyl)-[1,1′-biphenyl]-3-yl)-N,2-dimethylpyrido[3,2-e][1,2,4]triazolo[4,3-a]pyrimidin-5-amine] | 7.45 | 12.3
Cc1ccc2c(N(C)c3cccc(Cl)c3)nc3nncn3c2n1 [Example 125, N-(3-chlorophenyl)-N,2-dimethylpyrido[3,2-e][1,2,4]triazolo[4,3-a]pyrimidin-5-amine] | 169 | 734
CN(c1cccc(C#CC(C)(C)C)c1)c1nc2nncn2c2nc(N)ccc12 [Example 126, N5-(3-(3,3-dimethylbut-1-yn-1-yl)phenyl)-N5-methylpyrido[3,2-e][1,2,4]triazolo[4,3-a]pyrimidine-2,5-diamine] | 3.15 | 21.4
CN(c1cccc(-c2ccc(C3CC3)cc2)c1)c1nc2nncn2c2nc(N)ccc12 [Example 127, N5-(4′-cyclopropyl-[1,1′-biphenyl]-3-yl)-N5-methylpyrido[3,2-e][1,2,4]triazolo[4,3-a]pyrimidine-2,5-diamine] | 1.43 | 7.25
COc1ccc2c(N(C)c3cccc(C#CC(C)(C)C)c3)nc3nncn3c2n1 [Example 128, N-(3-(3,3-dimethylbut-1-yn-1-yl)phenyl)-2-methoxy-N-methylpyrido[3,2-e][1,2,4]triazolo[4,3-a]pyrimidin-5-amine] | 3.46 | 102
